PMC5225183, “Fingerprinting of neurotoxic compounds using a mouse embryonic stem cell dual luminescence reporter assay” (Archives of Toxicology, 2016)
Read-outs that look alike come from different tables or passages of the source. Marks after values point to notes of the source that are not given here.

B1: G-CSF: Hormone stimulating granulopoiesis; Peptide/Protein (protein, UniProt P09919 31-207, looked up)
Granulocyte …: TPLGPASSLPQSFLLKCLEQVRKIQGDGAALQEKLVSECATYKLCHPEELVLLGHSLGIPWAPLSSCPSQALQLAGCLSQLHSGLFLYQGLLQALEGISPELGPTLDTLQLDVADFATTIWQQMEELGMAPALQPTQGAMPAFASAFQRRAGGVLVASHLQSFLEVSYRVLRHLAQP

Experiments:
[1] = Table S1, three classes; ref per compound in the footnotes of Table S1; cited from earlier work
EF1α promoter = tested on: EF1α promoter
In short: (§1)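 Mouse CGR8 ESCs carrying Tα1-firefly and EF1α-Renilla luciferase reporters, treated either undifferentiated (48 h exposure after 24 h plating) or as MS5-induced neurons (exposure day 6 to day 8). Dual-luciferase luminescence expressed as % promoter activity versus DMSO control wells; 5 µM methylmercury as positive control.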

[2] = tested on: Tubulin α1 (Tα1) promoter
In short: as §1

CGR8-2Luc ESCs = tested on: CGR8-2Luc ESCs
In short: (§2)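 Mouse CGR8-2Luc ESCs in LIF-containing medium were exposed to compounds for 48 h; ESC-derived neurons (MS5 co-culture, replated day 5 in N2/bFGF medium) were exposed from day 6 to day 8. Read-outs: Tα1-FLuc, EF1α-RLuc and PI DNA content as % of control. LOAEL = lowest concentration giving a significant decrease versus baseline.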

ESC-derived neurons = tested on: ESC-derived neurons
In short: as §2

[3] = cited from earlier work; for Concentration in humans (increase in blood mercury levels after vaccination): ref Pichichero et al. ([2008])
[4] = undifferentiated ESCs, 48 h exposure
[5] = undifferentiated ESCs, 48 h exposure, lowest tested concentration with statistically significant decrease
[6] = undifferentiated ESCs, 48 h exposure, PI assay (cytotoxicity)
[7] = ESC-derived neurons, 48 h exposure, PI assay (cytotoxicity)
[8] = ESC-derived neurons, 48 h exposure

Row | Molecule | class based on clinical evidence for neurotoxicity [1] | LOAEL ESC EF1α (EF1α promoter; [4]) [µM] | LOAEL ESC Tα1 [2, 5] [µM] | LOAEL ESC DNA (CGR8-2Luc ESCs; [6]) [µM] | LOAEL Neurons DNA (ESC-derived neurons; [7]) [µM] | LOAEL Neurons EF1α (EF1α promoter; [8]) [µM] | Concentration in humans ([3]; ref Zimmer et al. ([2014])) | also measured
1 | O=c1[nH]c(=O)c2[nH]c(=O)[nH]c2[nH]1 [Uric acid] | Non-neurotoxic | >50 | >50 | >50 | >50 | – | – | LOAEL Neurons EF1α (EF1α promoter; mouse, 48 h): >50 µM
2 | C[CH2][Hg][S]c1ccccc1C(=O)[O-].[Na+] [Thimerosal] | Possibly (developmental) | – | – | – | – | – | – | LOAEL ESC EF1α (EF1α promoter): 0.5 µM; LOAEL Neurons EF1α (EF1α promoter): 0.5 µM; LOAEL ESC Tα1 [2]: 0.5 µM; increase in blood mercury levels after vaccination ([3]; conversion of <5 ng/ml, ref Pichichero et al. [2008]): ~25 nM; Concentration in humans (increase in blood mercury levels after vaccination) [3]: Max 5 ng/ml^j; Concentration in humans (increase in blood mercury levels after vaccination) ([3]; listed as thimerosal): < 5 ng/mL; LOAEL ESC DNA (CGR8-2Luc ESCs): 0.5 µM; LOAEL Neurons DNA (ESC-derived neurons): 0.5 µM
3 | COc1cc2ncnc(Nc3ccc(F)c(Cl)c3)c2cc1OCCCN1CCOCC1 [Gefitinib] | Possibly (developmental) | 50 | 50 | 50 | 50 | 50 | 1.2^k µM | –
4 | COCC(=O)O [Methoxyacetic acid] | Possibly (developmental) | >50 | >50 | >50 | >50 | >50 | – | effect on neural promoter activity in ESCs [2]: increase; Concentration in humans (human exposure concentration) ([3]; human exposure concentration, ref Zimmer et al. ([2014])): 60^k (human exposure concentration) µM
5 | C/C(O)=C(\C#N)C(=O)Nc1ccc(C(F)(F)F)cc1 [Teriflunomide] | – | >50 | >50 | >50 | >50 | – | 10.8^k µM | LOAEL Neurons EF1α (EF1α promoter; mouse, 48 h): >50 µM; effect on neural promoter activity in ESCs [2]: increase
6 | [CH3][Hg][Cl] [Methylmercury] | Well-established (developmental) | 0.5 | 0.5 | 0.5 | 0.5 | 5 | – | Concentration in humans ([3]; ref Krug et al. ([2013b])): 0.005–0.5^e µM; Concentration in humans ([3]; ref Krug et al. ([2013b]), listed as methylmercury): 0.005 to 0.5 µM
7 | Cc1[nH]c2ccccc2c1CCNCc1ccc(/C=C/C(=O)NO)cc1 [Panobinostat] | Possibly (developmental) | 0.05 | 0.05 | 0.05 | 0.05 | 50 | – | Concentration in humans ([3]; ref Bauer et al. ([2014])): 0.036–0.045^h µM
8 | O=C(NC[C@H]1CN(c2ccc(N3CCOCC3=O)cc2)C(=O)O1)c1ccc(Cl)s1 [Rivaroxaban] | Non-neurotoxic | >10 | >10 | >10 | >10 | >10 | 0.69^k µM | –
9 | O=C(/C=C/c1cccc(S(=O)(=O)Nc2ccccc2)c1)NO [Belinostat] | Possibly (developmental) | 5 | 5 | 0.5 | 50 | 50 | – | Concentration in humans ([3]; ref Wei et al. ([2014])): 0.36^f µM
10 | CCCC(CCC)C(=O)O [Valproic acid] | Well-established (developmental) | 5000 | 5000 | 5000 | 5000 | 5000 | – | Concentration in humans ([3]; ref Krug et al. ([2013b])): 500–1000^e µM
11 | B1 | Non-neurotoxic | >0.00266 | >0.00266 | – | – | >0.00266 | 1.3*10^−6k µM | effect on general promoter activity in neurons (EF1α promoter): selectively increased; LOAEL ESC DNA (CGR8-2Luc ESCs): >0.00266 µM; LOAEL Neurons DNA (ESC-derived neurons): >0.00266 µM
